Patent publication US20070065385A1, “Cold production method for pearly lustre preparations containing alcohols” (Clariant International, Ltd., priority 2005, published 2007)

Key:
[1] = Degree of hydrolysis of stearoxytrimethylsilane to stearyl alcohol in ethanol/water at varying pH, by GC analysis; type: physicochemical; settings: for % Hydrolysis of Stearoxytrimethylsilane to Stearyl Alcohol: 25° C., 5 wt% in 90 wt% ethanol/5 wt% D.I. water
Text: The pearlescent effect of the present invention appears to be produced by the interaction of the siloxane compound, trimethylsilylalkylsilsesquioxane in the alcoholic hydrogel. It is believed that the trimethylsilylalkylsilsesquioxanes, such as stearoxytrimethylsilane, which is initially a liquid in anhydrous form, after dispersion in the alcoholic hydrogel, undergoes a degree of hydrolysis which results in the formation of finely dispersed crystals of pure stearyl alcohol in the alcoholic hydrogel. This process continues until the pearlescent appearance, or the desired degree of opacity is achieved. The degree of pearlescence or the density of the opacity can be controlled by controlling the amount of the siloxane and other components. The pH of the mixture influences the speed of the hydrolysis reaction. Preferably, the pH of the mixture of the alcoholic hydrogel and the trimethylsilylalkylsilsesquioxane is from 3 to 6.
The degree of hydrolysis of stearoxytrimethylsilane was determined in an ethanol/water mixture at varying pH levels ranging from 4.4 to 9.1. A mixture comprising 5 weight percent anhydrous stearoxytrimethylsilane (Available from Clariant Corp., as SILCARE 1 M71), 90 weight percent ethanol and 5 weight percent de-ionized water (D.I.) was subjected to various pH levels and the degree of hydrolysis to stearyl alcohol was determined by GC analysis.

[2] = cited from earlier work

CCCCCCCCCCCCCCCCCCO[Si](C)(C)C [Stearoxytrimethylsilane, stearoxytrimethylsilane]
speed of hydrolysis ([1]; below a pH of 6): quickly hydrolyses
% Hydrolysis of Stearoxytrimethylsilane to Stearyl Alcohol ([1]; pH (initial) 4.4, 2 Days): >99%
% Hydrolysis of Stearoxytrimethylsilane to Stearyl Alcohol ([1]; pH (initial) 4.4, 14 Days): >99%
% Hydrolysis of Stearoxytrimethylsilane to Stearyl Alcohol ([1]; pH (initial) 4.4, 15 minutes (initial)): >99%
% Hydrolysis of Stearoxytrimethylsilane to Stearyl Alcohol ([1]; pH (initial) 5.3, 2 Days): >99%
% Hydrolysis of Stearoxytrimethylsilane to Stearyl Alcohol ([1]; pH (initial) 5.3, 14 Days): >99%
% Hydrolysis of Stearoxytrimethylsilane to Stearyl Alcohol ([1]; pH (initial) 5.3, 15 minutes (initial)): >99%
% Hydrolysis of Stearoxytrimethylsilane to Stearyl Alcohol ([1]; pH (initial) 5.5, 2 Days): 97%
% Hydrolysis of Stearoxytrimethylsilane to Stearyl Alcohol ([1]; pH (initial) 5.5, 14 Days): >99%
% Hydrolysis of Stearoxytrimethylsilane to Stearyl Alcohol ([1]; pH (initial) 5.5, 15 minutes (initial)): 55%
% Hydrolysis of Stearoxytrimethylsilane to Stearyl Alcohol ([1]; pH (initial) 6.2, 2 Days): 36%
% Hydrolysis of Stearoxytrimethylsilane to Stearyl Alcohol ([1]; pH (initial) 6.2, 14 Days): 95%
% Hydrolysis of Stearoxytrimethylsilane to Stearyl Alcohol ([1]; pH (initial) 6.2, 15 minutes (initial)): 6%
% Hydrolysis of Stearoxytrimethylsilane to Stearyl Alcohol ([1]; pH (initial) 8.1, 2 Days): 10%
% Hydrolysis of Stearoxytrimethylsilane to Stearyl Alcohol ([1]; pH (initial) 8.1, 14 Days): 48%
% Hydrolysis of Stearoxytrimethylsilane to Stearyl Alcohol ([1]; pH (initial) 8.1, 15 minutes (initial)): 2%
% Hydrolysis of Stearoxytrimethylsilane to Stearyl Alcohol ([1]; pH (initial) 9.1, 2 Days): 4%
% Hydrolysis of Stearoxytrimethylsilane to Stearyl Alcohol ([1]; pH (initial) 9.1, 14 Days): 21%
% Hydrolysis of Stearoxytrimethylsilane to Stearyl Alcohol ([1]; pH (initial) 9.1, 15 minutes (initial)): 2%

CCCCCCCCCCCCCCCCCCO [Stearyl alcohol]
solubility in alcohol ([2]; alcohol): soluble
solubility in water ([2]; water): insoluble
